Experimental data taken from patent US6914045B2, “Glycopeptide antibiotics” (Wyeth Holdings Corporation, priority 2001, dated 2005).
Converted amounts (≈) assume the structure as drawn. Blank lines part the entries; values can stand above or below the molecule they belong to.

What was measured:
Assay in all cases: in vitro antibacterial evaluation, MIC by broth dilution
Format in all cases: cell-based
Escherichia coli = settings: 18 hours at 35° C.
Procedure, shortened: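 Broth dilution in Muller-Hinton II medium per NCCLS standard M7-A2, with an inoculum of 5×10^5 CFU/mL and antibiotic tested over 64-0.06 μg/mL. MIC was taken as the lowest concentration inhibiting visible growth.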

Enterococcus sp. = settings: broth dilution, 18 hours at 35° C.
Experimental: (§1) Methods for in vitro Antibacterial Evaluation (Table 1)
(§2) The minimum inhibitory concentration (MIC), the lowest concentration of the antibiotic which inhibits growth of the test organism, is determined by the broth dilution method using Muller-Hinton II […] (Baltimore Biological Laboratories) following the recommendations of the National Committee for Clinical Laboratory Standards [Methods for dilution antimicrobial susceptibility tests for bacteria that grow aerobically, approved standard M7-A2, National Committee for Clinical Laboratory Standards, Villanova, Pa.].
(§3) An inoculum level of 5×10^5 CFU/mL, and a range of antibiotic concentrations (64-0.06 μg/mL) is used. […] The test organisms include a spectrum of Gram-positive bacteria comprised of Staphylococcus sp., Streptococcus sp. and Enterococcus sp. These organisms include recent clinical isolates that are resistant to methicillin, penicillin and/or vancomycin.

Staphylococcus sp. = settings: broth dilution, 18 hours at 35° C.; for MIC Staphylococcus aureus (ATCC 29213): strain ATCC 29213; for MIC Staphylococcus aureus (GC 1131): strain GC 1131; for MIC Staphylococcus aureus (GC 3051): strain GC 3051; for MIC Staphylococcus aureus (GC 3053): strain GC 3053; for MIC Staphylococcus aureus (GC 4541): strain GC 4541; for MIC Staphylococcus aureus (GC 4542): strain GC 4542; for MIC Staphylococcus aureus-SMITH (GC 4543): strain GC 4543; for MIC Staphylococcus aureus (GC 4544): strain GC 4544; for MIC Staphylococcus aureus (GC 4545): strain GC 4545; for MIC Staphylococcus haemolyticus (GC 4546): strain GC 4546; for MIC Coagulase Negative Staphylococcus (GC 4547): strain GC 4547; for MIC Coagulase Negative Staphylococcus (GC 4548): strain GC 4548; for MIC Coagulase Negative Staphylococcus (GC 4549): strain GC 4549; for MIC Coagulase Negative Staphylococcus (GC 4551): strain GC 4551
Experimental: as §1, §2, §3

Streptococcus sp. = settings: broth dilution, 18 hours at 35° C.
Experimental: as §1, §2, §3

MIC Escherichia coli (ATCC 25922) (Escherichia coli; strain ATCC 25922, broth dilution): 64 µg/mL (≈ 63.1 µM)
MIC Escherichia coli (GC 4559) (Escherichia coli; strain GC 4559, broth dilution): 32 µg/mL (≈ 31.6 µM)
MIC Escherichia coli (GC 4560) (Escherichia coli; strain GC 4560, broth dilution): 16 µg/mL (≈ 15.8 µM)
MIC Enterococcus faecalis (ATCC 29212) (Enterococcus sp.; strain ATCC 29212): >128 µg/mL
MIC Enterococcus faecalis (GC 2242) (Enterococcus sp.; strain GC 2242): >128 µg/mL
MIC Enterococcus faecium (GC 2243) (Enterococcus sp.; strain GC 2243): >128 µg/mL
MIC Enterococcus faecalis (GC 2691) (Enterococcus sp.; strain GC 2691): >128 µg/mL
MIC Enterococcus faecalis (GC 3059) (Enterococcus sp.; strain GC 3059): >128 µg/mL
MIC Enterococcus faecalis (GC 4552) (Enterococcus sp.; strain GC 4552): >128 µg/mL
MIC Enterococcus faecalis (GC 4553) (Enterococcus sp.; strain GC 4553): 128 µg/mL (≈ 126 µM)
MIC Enterococcus faecalis (GC 4554) (Enterococcus sp.; strain GC 4554): >128 µg/mL
MIC Enterococcus faecium (GC 4556) (Enterococcus sp.; strain GC 4556): >128 µg/mL
MIC Enterococcus faecium (GC 4557) (Enterococcus sp.; strain GC 4557): 64 µg/mL (≈ 63.1 µM)
MIC Enterococcus avium (GC 4558) (Enterococcus sp.; strain GC 4558): 128 µg/mL (≈ 126 µM)
MIC Enterococcus faecalis (GC 6189) (Enterococcus sp.; strain GC 6189): >128 µg/mL
MIC Staphylococcus aureus (ATCC 29213) (Staphylococcus sp.): >128 µg/mL
MIC Staphylococcus aureus (GC 1131) (Staphylococcus sp.): >128 µg/mL
MIC Staphylococcus aureus (GC 3051) (Staphylococcus sp.): >128 µg/mL
MIC Staphylococcus aureus (GC 3053) (Staphylococcus sp.): >128 µg/mL
MIC Staphylococcus aureus (GC 4541) (Staphylococcus sp.): >128 µg/mL
MIC Staphylococcus aureus (GC 4542) (Staphylococcus sp.): >128 µg/mL
MIC Staphylococcus aureus-SMITH (GC 4543) (Staphylococcus sp.): >128 µg/mL
MIC Staphylococcus aureus (GC 4544) (Staphylococcus sp.): >128 µg/mL
MIC Staphylococcus aureus (GC 4545) (Staphylococcus sp.): >128 µg/mL
MIC Coagulase Negative Staphylococcus (GC 4547) (Staphylococcus sp.): 128 µg/mL (≈ 126 µM)
MIC Coagulase Negative Staphylococcus (GC 4548) (Staphylococcus sp.): 128 µg/mL (≈ 126 µM)
MIC Coagulase Negative Staphylococcus (GC 4549) (Staphylococcus sp.): 64 µg/mL (≈ 63.1 µM)
MIC Coagulase Negative Staphylococcus (GC 4551) (Staphylococcus sp.): >128 µg/mL
MIC Coagulase Negative Staphylococcus (GC 6257) (Staphylococcus sp.; strain GC 6257): 128 µg/mL (≈ 126 µM)
MIC Streptococcus pneumoniae (ATCC 6301) (Streptococcus sp.; strain ATCC 6301): 128 µg/mL (≈ 126 µM)
MIC Streptococcus pneumoniae (GC 1894) (Streptococcus sp.; strain GC 1894): 64 µg/mL (≈ 63.1 µM)
MIC Streptococcus pyogenes (GC 4563) (Streptococcus sp.; strain GC 4563): 128 µg/mL (≈ 126 µM)
MIC Streptococcus agalactiae (GC 4564) (Streptococcus sp.; strain GC 4564): 128 µg/mL (≈ 126 µM)
MIC Streptococcus pneumoniae (GC 4565) (Streptococcus sp.; strain GC 4565): 128 µg/mL (≈ 126 µM)
Structure (SMILES): CC(c1ccccc1)C1NC(=O)CNC(=O)C(CO)NC(=O)C(C(O)C2CNC(=N)N2C2OC(CO)C(O)C(O)C2O)NC(=O)C(C(O)C2CNC(=N)N2)NC(=O)C(Cc2ccc(O)c(NC=O)c2)NC1=O (stereo not drawn) [Example 18, Cyclo[glycyl-β-methylphenylalanyl-3-formamidotyrosyl-3-(2-iminoimidazolidin-4-yl)seryl-3-(3-hexopyranosyl-2-iminoimidazolidin-4-yl)serylseryl]]
MIC Staphylococcus haemolyticus (GC 4546) (Staphylococcus sp.): 128 µg/mL (≈ 126 µM)

MIC Escherichia coli (ATCC 25922) (Escherichia coli): >64 µg/mL
MIC Escherichia coli (GC 4559) (Escherichia coli): >64 µg/mL
MIC Escherichia coli (GC 4560) (Escherichia coli): 64 µg/mL (≈ 44.9 µM)
MIC Enterococcus avium (GC 4558) (Enterococcus sp.): 64 µg/mL (≈ 44.9 µM)
MIC Enterococcus faecalis (ATCC 29212) (Enterococcus sp.): >64 µg/mL
MIC Enterococcus faecalis (GC 2242) (Enterococcus sp.): >64 µg/mL
MIC Enterococcus faecalis (GC 2691) (Enterococcus sp.): >64 µg/mL
MIC Enterococcus faecalis (GC 3059) (Enterococcus sp.): >64 µg/mL
MIC Enterococcus faecalis (GC 4552) (Enterococcus sp.): >64 µg/mL
MIC Enterococcus faecalis (GC 4553) (Enterococcus sp.): >64 µg/mL
MIC Enterococcus faecalis (GC 4554) (Enterococcus sp.): >64 µg/mL
MIC Enterococcus faecalis (GC 6189) (Enterococcus sp.): >64 µg/mL
MIC Enterococcus faecium (GC 2243) (Enterococcus sp.): >64 µg/mL
MIC Enterococcus faecium (GC 4556) (Enterococcus sp.): >64 µg/mL
MIC Enterococcus faecium (GC 4557) (Enterococcus sp.): 64 µg/mL (≈ 44.9 µM)
MIC Enterococcus faecalis (ATCC 29212) (Enterococcus sp.; inoculum 5×10^5 CFU/mL, strain ATCC 29212): >64 µg/mL
MIC Enterococcus faecalis (GC 2242) (Enterococcus sp.; inoculum 5×10^5 CFU/mL, strain GC 2242): >64 µg/mL
MIC Enterococcus faecium (GC 2243) (Enterococcus sp.; inoculum 5×10^5 CFU/mL, strain GC 2243): >64 µg/mL
MIC Enterococcus faecalis (GC 2691) (Enterococcus sp.; inoculum 5×10^5 CFU/mL, strain GC 2691): >64 µg/mL
MIC Enterococcus faecalis (GC 3059) (Enterococcus sp.; inoculum 5×10^5 CFU/mL, strain GC 3059): >64 µg/mL
MIC Enterococcus faecalis (GC 4552) (Enterococcus sp.; inoculum 5×10^5 CFU/mL, strain GC 4552): >64 µg/mL
MIC Enterococcus faecalis (GC 4553) (Enterococcus sp.; inoculum 5×10^5 CFU/mL, strain GC 4553): >64 µg/mL
MIC Enterococcus faecalis (GC 4554) (Enterococcus sp.; inoculum 5×10^5 CFU/mL, strain GC 4554): >64 µg/mL
MIC Enterococcus faecium (GC 4556) (Enterococcus sp.; inoculum 5×10^5 CFU/mL, strain GC 4556): >64 µg/mL
MIC Enterococcus faecium (GC 4557) (Enterococcus sp.; inoculum 5×10^5 CFU/mL, strain GC 4557): 64 µg/mL (≈ 44.9 µM)
MIC Enterococcus avium (GC 4558) (Enterococcus sp.; inoculum 5×10^5 CFU/mL, strain GC 4558): 64 µg/mL (≈ 44.9 µM)
MIC Enterococcus faecalis (GC 6189) (Enterococcus sp.; inoculum 5×10^5 CFU/mL, strain GC 6189): >64 µg/mL
MIC Staphylococcus aureus (ATCC 29213) (Staphylococcus sp.): >64 µg/mL
MIC Staphylococcus aureus (GC 1131) (Staphylococcus sp.): >64 µg/mL
MIC Staphylococcus aureus (GC 3051) (Staphylococcus sp.): >64 µg/mL
MIC Staphylococcus aureus (GC 3053) (Staphylococcus sp.): >64 µg/mL
MIC Staphylococcus aureus (GC 4541) (Staphylococcus sp.): >64 µg/mL
MIC Staphylococcus aureus (GC 4542) (Staphylococcus sp.): >64 µg/mL
MIC Staphylococcus aureus-SMITH (GC 4543) (Staphylococcus sp.): >64 µg/mL
MIC Staphylococcus aureus (GC 4544) (Staphylococcus sp.): >64 µg/mL
MIC Staphylococcus aureus (GC 4545) (Staphylococcus sp.): >64 µg/mL
MIC Coagulase Negative Staphylococcus (GC 4547) (Staphylococcus sp.): >64 µg/mL
MIC Coagulase Negative Staphylococcus (GC 4548) (Staphylococcus sp.): >64 µg/mL
MIC Coagulase Negative Staphylococcus (GC 4549) (Staphylococcus sp.): >64 µg/mL
MIC Coagulase Negative Staphylococcus (GC 4551) (Staphylococcus sp.): >64 µg/mL
MIC Streptococcus agalactiae (GC 4564) (Streptococcus sp.): >64 µg/mL
MIC Streptococcus pneumoniae (ATCC 6301) (Streptococcus sp.): 64 µg/mL (≈ 44.9 µM)
MIC Streptococcus pneumoniae (GC 1894) (Streptococcus sp.): 32 µg/mL (≈ 22.4 µM)
MIC Streptococcus pneumoniae (GC 4565) (Streptococcus sp.): 64 µg/mL (≈ 44.9 µM)
MIC Streptococcus pyogenes (GC 4563) (Streptococcus sp.): 64 µg/mL (≈ 44.9 µM)
MIC Streptococcus pneumoniae (ATCC 6301) (Streptococcus sp.; inoculum 5×10^5 CFU/mL, strain ATCC 6301): 64 µg/mL (≈ 44.9 µM)
MIC Streptococcus pneumoniae (GC 1894) (Streptococcus sp.; inoculum 5×10^5 CFU/mL, strain GC 1894): 32 µg/mL (≈ 22.4 µM)
MIC Streptococcus pyogenes (GC 4563) (Streptococcus sp.; inoculum 5×10^5 CFU/mL, strain GC 4563): 64 µg/mL (≈ 44.9 µM)
MIC Streptococcus agalactiae (GC 4564) (Streptococcus sp.; inoculum 5×10^5 CFU/mL, strain GC 4564): >64 µg/mL
MIC Streptococcus pneumoniae (GC 4565) (Streptococcus sp.; inoculum 5×10^5 CFU/mL, strain GC 4565): 64 µg/mL (≈ 44.9 µM)
Structure (SMILES): N=C1NCC(C(O)C2NC(=O)C(CC3CCC(OC4OC(CO)C(OC5OC6COC7(OC6C(O)C5O)C5CC6CC(C5)CC7C6)C(O)C4O)CC3)NC(=O)C(CC3CCCCC3)NC(=O)CNC(=O)C(CO)NC(=O)C(C(O)C3CNC(=N)N3C3OC(CO)C(O)C(O)C3O)NC2=O)N1 (single isomer, unassigned) [Example 222]
MIC Staphylococcus haemolyticus (GC 4546) (Staphylococcus sp.): >64 µg/mL
